Where only a bound is given, the exact number is not on record here.

As usually defined, the IC50 is the midpoint of a concentration-inhibition curve. Lower therefore signals greater potency.

For this experiment, the target named is Mitogen-activated protein kinase kinase kinase kinase 1 (Homo sapiens, UniProt Q92918). In words: HPK1 Kinase Assay. As to the method: HPK1 kinase activity was measured by Promega's ADP-Glo™ kinase assay. In this assay, 5 ng of recombinant human HPK1 (signalchem) is incubated with 5 μL of compounds (0.5% DMSO), 5 μL of MBP (0.5 μg/μl) and 5 μL of ATP (25 μM) in buffer (40 mM Tris, 7.5; 20 mM MgCl2; 0.1 mg/ml BSA; 50 μM DTT.). The assay was started by incubating the reaction mixture in a 96-well plate at 30° C. for 40 minutes. After the incubation, 25 μL ADP-Glo reagent was added and the reaction was incubated at room temperature for 40-min to stop the reaction and degrade residual ATP. The ADP product was then converted to ATP by adding 50 μL per well of detection reagent. Luminescence was detected after 30-min room temperature incubation with the Molecular device I3X plate reader. The IC50 values were calculated from a series of percent inhibition values determined at a range of inhibitor concentration using software routines as implemented in the GraphPad Prism 7 software and SigmaPlot13.0.
Sequence of Mitogen-activated protein kinase kinase kinase kinase 1 (Q92918 whole entry): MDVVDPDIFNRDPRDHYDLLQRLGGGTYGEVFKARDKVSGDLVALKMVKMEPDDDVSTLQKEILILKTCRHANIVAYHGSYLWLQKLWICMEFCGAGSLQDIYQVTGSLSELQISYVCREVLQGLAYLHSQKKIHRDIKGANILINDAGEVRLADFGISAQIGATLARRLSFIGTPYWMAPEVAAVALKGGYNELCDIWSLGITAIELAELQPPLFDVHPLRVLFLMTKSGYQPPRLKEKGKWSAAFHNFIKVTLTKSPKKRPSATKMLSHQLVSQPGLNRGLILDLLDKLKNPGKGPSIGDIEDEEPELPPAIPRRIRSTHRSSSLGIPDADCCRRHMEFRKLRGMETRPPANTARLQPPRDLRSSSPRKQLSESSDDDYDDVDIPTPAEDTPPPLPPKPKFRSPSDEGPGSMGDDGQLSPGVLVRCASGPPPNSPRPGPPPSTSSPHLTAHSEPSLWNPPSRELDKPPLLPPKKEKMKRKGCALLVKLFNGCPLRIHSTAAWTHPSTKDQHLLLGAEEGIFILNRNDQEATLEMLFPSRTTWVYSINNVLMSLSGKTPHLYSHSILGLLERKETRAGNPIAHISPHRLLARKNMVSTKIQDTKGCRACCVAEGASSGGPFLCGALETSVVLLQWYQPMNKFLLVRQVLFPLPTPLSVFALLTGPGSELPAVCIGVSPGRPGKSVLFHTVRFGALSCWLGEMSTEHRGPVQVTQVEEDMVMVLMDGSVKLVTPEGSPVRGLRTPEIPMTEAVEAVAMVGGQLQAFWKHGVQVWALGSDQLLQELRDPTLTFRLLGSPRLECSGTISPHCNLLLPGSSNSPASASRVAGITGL

Take `CC(=O)Nc1cn2cc(-c3c(Cl)c(F)c(NC(C)C)c4[nH]ncc34)ncc2n1` [US20250197406, Example 43]: the IC50 is less than 100 nM. As to `CC(C)Nc1c(F)c(Cl)c(-c2cn3cc(NC(=O)C4(F)CC4)nc3cn2)c2cn[nH]c12` [US20250197406, Example 52], the IC50 was less than 100 nM.

The values above are taken from BindingDB's records for patent US20250197406 (1ST Biotherapeutics, 2025).
